Measurements: US20240255506A1, “PAIRED-CELL PROFILING SYSTEMS FOR HIGH-THROUGHPUT SCREENING SYNCYTIUM FORMATION” (priority 2023, published 2024)

Tests used:
[1] = system: SARS-COV-2 spike-induced syncytium formation in A549-ACE2 cells; format: cell-based; settings: A549-ACE2-GFP1-10 cells pre-incubated with drug 20 min in FBS-free medium, then mixed with 293T-spike-GFP11-mCherry cells, 24 h
SARS-COV-2 = settings: Vero E6 cells; previous study (ref. 25); cited from earlier work
[2] = system: SARS-COV-2-induced syncytium formation in Vero E6 cells; settings: drug screen with more than 3,000 approved drugs (ref. 19); cited from earlier work

Structure (SMILES)	cell-cell fusion process (syncytium formation) [1]	SARS-COV-2-induced cytotoxicity (SARS-COV-2)	SARS-COV-2-induced syncytium formation [2]
O=C1NC(=NS(=O)(=O)c2cccc3ccccc23)S/C1=C\c1ccc(Br)cc1 [Pitstop 2]	suppressed the cell-cell fusion process		
CC(CN1c2ccccc2Sc2ccccc21)N(C)C (stereo not shown) [promethazine]		reduces SARS-COV-2-induced cytotoxicity	some inhibitory effects
COCCCC/C(=N\OCCN)c1ccc(C(F)(F)F)cc1 [fluvoxamine]			some inhibitory effects
